Measured values taken from publication PMC9855133, “Ligand Binding Properties of Odorant-Binding Protein OBP5 from Mus musculus” (Biology, 2022).

T1: mOBP5 (Mus musculus, UniProt Q9D3H2)
T1 construct: composed of an N-terminal His6-tag, followed by mOBP5 (Ala17-Glu163); made in house; host or cells: E. coli M15 [pREP4]
T1 sequence (Q9D3H2 17-163): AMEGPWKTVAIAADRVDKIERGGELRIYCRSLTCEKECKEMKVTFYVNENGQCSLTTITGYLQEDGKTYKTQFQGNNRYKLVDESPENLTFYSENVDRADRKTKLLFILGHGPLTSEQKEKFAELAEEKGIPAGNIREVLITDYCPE

B1: Mus musculus odorant-binding protein OBP5 (mOBP5), recombinant His6-tagged (natural protein, UniProt Q9D3H2 17-163, looked up)
chain: T1 sequence (Q9D3H2 17-163)
notes: Expressed from pQE31 (BamHI/HindIII); also called mOBP1a; source: E. coli M15 [pREP4], purified (HisTrap Ni2+-chelating column, dialysis); not shown: His6, N-terminal, kept

Columns and labels:
mOBP5 [1] = target: T1, mOBP5; assay: Competitive fluorescence binding assay (displacement of NPN from mOBP5); details: for IC50 / Kd: 2 μM mOBP5, 10 μM NPN; for IC50: 20 °C, for very weak ligands an arbitrary value of 200 μM was assigned, read-out: IC50 (µM) Fluo: concentration of competitor ligand causing a decrease of NPN fluorescence of half-maximal intensity; for Kd: calculated as Kd = [IC50]/(1 + [L]/Kd NPN), average of three experiments, read-out: Kd (µM) Fluo: dissociation constant determined by fluorescence; for fluorescence intensity of the mOBP5-NPN complex in the presence of odorant: competitive curves, Figure 3C
Procedure: (§1) Competitive ligand binding experiments were performed using N-phenyl-1-naphthylamine (NPN) as a fluorescent probe as previously described. All measurements were conducted at 20 °C using a Cary Eclipse spectrofluorimeter (Agilent Technologies, Santa Clara, CA, United States) equipped with a Peltier temperature-control unit with a 1 cm light path, quartz cuvette, and 5 nm slits for both excitation and emission. […] The excitation wavelength of NPN was 337 nm, and the fluorescence emission was recorded between 350 and 600 nm. The value of the dissociation constant (Kd) NPN was calculated using SigmaPlot 12.5 software (Systat Software, Inc., San Jose, CA, USA), as previously described.
Competitive binding assays were carried out with 2 μM mOBP5 incubated with 10 μM NPN, as previously described. After the addition of the competitor compound and the stabilization of the signal (3–4 min), the fluorescence spectrum was recorded. The IC50 value is the concentration of odorant, which causes a fluorescence decrease in half-maximal intensity. The IC50 values were calculated using SigmaPlot software. Dissociation constants (Kd) for odorant competitors were calculated as Kd = [IC50]/(1 + [L]/Kd NPN), with [L] being the free fluorophore concentration and Kd being the OBP-fluorophore complex dissociation constant. The reported Kd values are the average of three measurements performed in three independent experiments.

mOBP5 [2] = target: T1, mOBP5; assay: Isothermal titration microcalorimetry (ITC); type: binding; details: 25 °C, 25 μM mOBP5, 250 μM odorant, phosphate buffer pH 7.5; for Ka (ITC): association constant determined by ITC: in M-1 (unit assumed); for Kd: read-out: Kd (µM) ITC: dissociation constant determined by ITC (1/Ka)
Procedure: Isothermal titration microcalorimetry (ITC) experiments were carried out at 25 °C with a VP-ITC microcalorimeter (Malvern Panalytical, Palaiseau, France) as previously described. Before initiating the titration run, mOBP5 solutions (25 μM in 50 mM phosphate buffer, pH 7.5) were thoroughly degassed under vacuum. Ligand solutions (250 μM in 50 mM phosphate buffer, pH 7.5) were injected into one 3 µL aliquot, then 26 successive 10 μL aliquots. The duration of each injection was 20 s with a 210 s recovery time between injections. Heats of dilution determined in the absence of mOBP5 were subtracted from the titration data prior to curve fitting. Thermodynamic parameters were obtained by fitting the values to a single site binding model through nonlinear regression using Microcal Origin® software.

mOBP5 [3] = target: T1, mOBP5; assay: Fluorescence titration of mOBP5 with the probe NPN; type: binding; details: 2 µM mOBP5, 50 mM sodium phosphate pH 7.5, 20 °C, excitation 337 nm; read-out: dissociation constant (Kd) of NPN
Procedure: as §1

[4] = target: the molecule itself; assay: SEC; calibrated Superdex 75 10/300 GL, room temperature, 100 mM potassium phosphate, 150 mM NaCl, pH 7.5, 1 mL/min; purified mOBP5 at 0.5 mg/mL

| Molecule | IC50 (mOBP5 [1]) [µM] | Kd (mOBP5 [1]) [µM] | N ITC: binding stoichiometry per monomer determined by ITC (mOBP5 [2]) | Ka (ITC): association constant determined by ITC (mOBP5 [2]) | Kd (mOBP5 [2]) [µM] | fluorescence intensity of the mOBP5-NPN complex in the presence of odorant (mOBP5 [1]) | Kd (mOBP5 [3]) [nM] | stoichiometry N [4] |
| --- | --- | --- | --- | --- | --- | --- | --- | --- |
| CC(C)=CCCC(C)=CC=O (mixture of isomers) [citral] | 2.5 | 0.61 | 0.65 | 1.3E+07 | 0.076 | – | – | – |
| C=C(C)C1CC=C(C)C(=O)C1 (single isomer, unassigned; (-)) [(-)-carvone] | 1.1 | 0.28 | – | – | – | drastically reduced | – | – |
| CCCCCCCO [1-heptanol] | 2.4 | 0.59 | – | – | – | – | – | – |
| CCCCCCO [1-hexanol] | 40 | – | – | – | – | – | – | – |
| CCCCCCCCO [1-octanol] | 1.1 | 0.29 | 0.71 | 3.6E+07 | 0.028 | drastically reduced | – | – |
| CCCCCCCCC(C)=O [2-decanone] | 1.2 | 0.31 | – | – | – | drastically reduced | – | – |
| COc1nccnc1CC(C)C [3-iso-butyl-2-methoxy-pyrazine] | 7.2 | 1.3 | – | – | – | – | – | – |
| COc1ccc(C=O)cc1 [4-methoxy-benzaldehyde] | 40 | – | – | – | – | – | – | – |
| C=C(C)[C@H]1CC=C(C)C(=O)C1 [(+)-carvone] | 1 | 0.28 | 0.47 | 8.7E+06 | 0.115 | drastically reduced | – | – |
| c1ccc(Nc2cccc3ccccc23)cc1 [NPN, N-phenyl-1-naphthylamine] | – | – | – | – | – | – | 3330 ± 170 | – |
| CC12CCC(CC1=O)C2(C)C (stereo not drawn) [camphor] | 10.4 | 1.6 | – | – | – | – | – | – |
| CC12CCC(CC1)C(C)(C)O2 [cineole] | 40 | – | – | – | – | – | – | – |
| CCCC(=O)OCC [ethyl butyrate] | 40 | – | – | – | – | – | – | – |
| CC(C)=CCC/C(C)=C/CO [geraniol] | 0.7 | 0.19 | 0.71 | 2.5E+07 | 0.04 | drastically reduced | – | – |
| CC(=O)OCCC(C)C [isoamyl acetate] | 2.5 | 0.6 | 0.87 | 8.6E+06 | 0.116 | – | – | – |
| CC(C=O)Cc1ccc(C(C)(C)C)cc1 (stereo not drawn) [lilialdehyde] | 1.4 | 0.38 | – | – | – | drastically reduced | – | – |
| C=CC(C)(O)CCC=C(C)C (stereo not drawn) [linalool] | 1.1 | 0.3 | – | – | – | drastically reduced | – | – |
| CC1CCC(C(C)C)C(O)C1 (stereo not drawn) [menthol] | 1.5 | 0.38 | – | – | – | drastically reduced | – | – |
| CC(C)[C@@H]1CC[C@@H](C)CC1=O [menthone] | 0.8 | 0.23 | 0.58 | 1.8E+07 | 0.055 | drastically reduced | – | – |
| CCCCCCCC=O [octanal] | 1.3 | 0.34 | – | – | – | drastically reduced | – | – |
| Cc1ccc(C(C)C)c(O)c1 [thymol] | 40 | – | – | – | – | – | – | – |
| CC1=CCC2CC1C2(C)C (stereo not drawn) [α-pinene] | 0.9 | 0.24 | – | – | – | drastically reduced | – | – |
| CC(=O)/C=C/C1=C(C)CCCC1(C)C [β-ionone] | 3 | 0.71 | – | – | – | – | – | – |
| CCCCCCC1CCC(=O)O1 (stereo not drawn) [γ-decalactone] | 2.4 | 0.58 | – | – | – | – | – | – |
| B1 | – | – | – | – | – | – | – | 2 |
